One data set relates to Acinetobacter baumannii. Briefly: Compassionate use study, osteomyelitis patient. It counts as in vivo, human. The note with it: one human patient. The method, then:
The patient was treated with meropenem and tobramycin. […] The patient was then treated with tigecycline for two months with either 50 mg every 12 hours or 50 mg every 24 hours.

In a further data set the test system is Mycobacterium abscessus. The format is in vivo, human. As to conditions: human, in vivo. How it is done:
Debridement was accomplished after one year of infection with placement of hardware. […] The amikacin was later stopped due to renal damage. Linezolid and azithromycin were later added to the treatment regimen. The organism was determined to be resistant to moxifloxacin.
The patient presented later with a new vertebral osteomyelitis just above the site of the old infection. A biopsy was performed and it was determined that no additional debridement was needed. […] Tigecycline was administered up to MIC 0.25 micrograms/ml. The patient's white blood cell count was normal while hypogammaglobulinemia was present and lymphocytic function decreased. The patient had also been under treatment with IL-12, but IL-12 was held during antibiotic treatment.

The subject of data set [1] is methicillin-resistant S. aureus.
Description: Preparation of the Infective Media: S. aureus was incubated overnight in Mueller Hinton Broth (Difco Laboratories, Detroit, Mich.) medium spiked with 40 μg/ml oxacillin, at 37° C. The bacterial concentration of the culture was adjusted to 10^7 CFU's/ml.
Rabbit Infection Procedure: New Zealand white rabbits (Ray Nicholl's Rabbitry, Lumberton, Tex.), eight to 12 weeks old and weighing 2.0 to 3.5 kg, were utilized for the study. After anesthesia was given, an 18-gauge needle was inserted percutaneously through the lateral aspect of the left tibial metaphysis into the intramedullary cavity. Next, 0.15 ml of 5% sodium morrhuate (American Regent Laboratories, Inc., Shirley, N.Y.), 0.1 ml of S. aureus (10^7 CFU/ml), and 0.2 ml of sterile, normal saline, 0.9%, were injected sequentially.
Group 1 (control group): infected but left untreated for the duration of the study. Group 2: rabbits were treated for 4 weeks with subcutaneous vancomycin at 30 mg/kg twice daily. Group 3: rabbits were treated for 4 weeks with subcutaneous vancomycin at 30 mg/kg twice daily plus oral rifampin at 40 mg/kg twice daily in 0.5% methylcellulose. Group 4: rabbits were treated for 4 weeks with subcutaneous tigecycline at 14 mg/kg twice daily. Group 5: rabbits were treated for 4 weeks with subcutaneous tigecycline at the same dose as in the rabbits in Group 4, plus oral rifampin at 40 mg/kg twice daily in 0.5% methylcellulose. […] Group 6: rabbits were treated for 1 week with subcutaneous tigecycline at the same dose as in Group 4, but were sacrificed 3 hours after administration of the last dose. At that time, blood and infected bone samples were collected and tigecycline concentration was determined. Groups 1 to 5 were left untreated for 2 weeks after treatment phase of the experiment and sacrificed at 8 weeks after infection.
Radiographs of bilateral tibias were taken at initiation of therapy (2 weeks after infection), at the end of antibiotic therapy (6 weeks after infection), and at sacrifice (8 weeks after infection). Radiographs were scored according to a visual scale (Table 1) by three investigators, each blinded to the treatment group, and the grades were averaged.
After sacrifice, gross cultures were performed for right and left tibias. Quantitative counts of S. aureus, in CFUs per gram, of left tibial bone and marrow were determined for all study groups.
Culture Preparation: The bone marrow and the intramedullary canal of bilateral tibias were swabbed with sterile cotton tip applicators for gross cultures analysis of left tibias and quality assurance checks of right tibias. The inoculated applicator was streaked onto blood plates and then placed into 5 ml of sterile TSB. The plates and tubes were then incubated at 37° C. for 24 hours and growth and/or turbidity was recorded.
The bone marrow was placed into a sterile, 50 ml centrifuge tube and weighed. The bone fragments were broken into 0.5 cm^2 chips, placed into a sterile, 50 ml centrifuge tube, and the final product weighed. Normal sterile saline, 0.9%, was added in a 3 to 1 ratio (3 ml saline/gram of bone or marrow) and the suspensions were vortexed for 2 minutes. Six ten-fold dilutions of each suspension were prepared with sterile, normal saline, 0.9%. Twenty-microliter samples of each dilution, including the initial suspension, was plated, in triplicate, onto blood agar plates and incubated at 37° C. for 24 hours. CFUs were counted at the greatest dilution for each tibia sample.
For data set [2] the test system is unchanged. Nature of the data set: microbe, parasite or virus in culture. As to conditions: for MIC / MBC: Staphylococcus aureus; for MIC: read-out: minimum inhibitory concentration (MIC); for MBC: read-out: minimum bactericidal concentration (MBC). The format is cell-based, Staphylococcus aureus. The method, then: The minimum inhibitory concentrations (MIC) of tigecycline, vancomycin and rifampin were determined using an antibiotic two-fold tube-dilution method. The minimum bactericidal concentrations were also determined. The limits of sensitivity of this method were 25 μg/ml to 0.20 μg/ml.

The next data set concerns A. baumanii. Nature of the data set: Susceptibility of patient isolate. As to conditions: A. baumanii from patient bone. It counts as cell-based, Acinetobacter baumannii.
A further data set has as its system M. abcessus. Briefly: Susceptibility/MIC of patient isolate, compassionate use study. The format is cell-based, Mycobacterium abscessus. As to conditions: M. abscessus patient isolate.
A short description of data set [3]: Antibiotic levels in rabbit serum and bone by diffusion bioassay. As to conditions: infected rabbits; tigecycline 14 mg/kg, vancomycin 30 mg/kg twice daily. The format is in vivo, New Zealand white rabbits. How it is done:
Normal NZW rabbit serum (Fisher Scientific) and normal, uninfected rabbit tibia bone were used to generate standard curves for tigecycline (Wyeth-Ayerst Research, Pearl River, N.Y.), vancomycin (Abbott Laboratories, Chicago, Ill.), and rifampin (Merrell Pharmaceuticals Inc. Kansas, Mo.). Bioassays were performed with each drug to generate the standard curves for antibiotic concentration in serum and/or tibial bone.
The organism used for the bioassay was Bacillus cereus ATCC11778. Serum standards were prepared using two-fold serial dilutions with either antibiotic to yield concentrations of 25 μg/ml to 0.20 μg/ml drug in Normal NZW rabbit serum. Bone eluate standards were prepared for tigecycline by thoroughly cleaning noninfected rabbit tibias with 70% ethanol in a sterilized fume hood. Each tibia was broken into small chips of approximately 0.5 cm^2 using a grinder. The chips were placed into a sterile, 50 ml conical centrifuge tube and weighed. One milliliter of sterile, 0.9% normal saline was added for each gram of bone chips. The solution was thoroughly vortexed for two minutes. The resulting bone eluate was allowed to shake at 180 rpm in a cold room at 4° C., for 12 hours. The samples were centrifuged at 4000 rpm for 3 minutes prior to assay, to pellet the chips.
The diameter of the zone of growth inhibition around each well was measured, in millimeters. A standard curve was generated for tigecycline concentration in both serum and bone eluate and for vancomycin in serum by plotting the known antibiotic concentration against its resulting zone of inhibition measurement. […]
Serum samples were stored at −70° C. until the bioassay was performed. […] The diameter of the zone of growth inhibition around each well was measured and concentrations of tigecycline were extrapolated from the standard curve.
Peak and trough levels of antibiotic were determined for Groups 2 and 4 at 1 hour (peak) and 12 hour (trough) after the initial antibiotic administration. Antibiotic concentrations were determined by means of a bioassay. […]

Data set [4] can be described thus: Adverse events and weight variance in infected treated rabbits. As to conditions: infected rabbits after antibiotic treatment. The text has this:
All rabbits were monitored weekly for weight variance. […] The key for FIGS. 4A and B is as follows: Control=control group, no treatment; Vancomycin=subcutaneous vancomycin treated group; Vanco+Rifampin=subcutaneous vancomycin with oral rifampin treated group; Gar-936=subcutaneous Gar-936 treated group; Gar-936+Rifampin=subcutaneous Gar-936 with oral Rifampin treated group.

The mark [5] stands for this setting: average grade, t=14 versus t=56 days.
Where [6] appears, read: individual rabbits, left tibia, 8 weeks after infection.

In brackets after ≈: the same amount, converted by molar mass. Several values for one entry are separate records, joined by “and”; a condition that tells them apart may be missing. Equal entries are not always repeated. Where two headings read alike, the source gives them in different places.

The values below come from patent US20050148553A1, “Use of tigecycline, alone, or in combination with rifampin to treat osteomyelitis and/or septic arthritis” (priority 2003, published 2005).

`C[C@@H](O)[C@H]1C(=O)N2C(C(=O)O)=C(S[C@@H]3CN[C@H](C(=O)N(C)C)C3)[C@H](C)[C@H]12` [Meropenem]: the “adverse event leading to discontinuation” value with Acinetobacter baumannii is reported as “eosinophilia”.

Turning to `NCC[C@H](O)C(=O)N[C@@H]1C[C@H](N)[C@@H](O[C@H]2O[C@H](CN)[C@@H](O)[C@H](O)[C@H]2O)[C@H](O)[C@H]1O[C@H]1O[C@H](CO)[C@@H](O)[C@H](N)[C@H]1O` [amikacin, reference compound], the “adverse event leading to discontinuation” value with Mycobacterium abscessus was “renal damage”.

Consider `CO[C@H]1/C=C/O[C@@]2(C)Oc3c(C)c(O)c4c(O)c(c(/C=N/N5CCN(C)CC5)c(O)c4c3C2=O)NC(=O)/C(C)=C\C=C\[C@H](C)[C@H](O)[C@@H](C)[C@@H](O)[C@@H](C)[C@H](OC(C)=O)[C@@H]1C` [rifampin], for which the “bacterial outcome in bone and marrow, in words” value in data set [1] (end of study, MRSA infected rabbits) is listed as “bactericidal activity”. Also, in data set [2] (MRSA study strain), the MIC/MBC ratio is reported as 0.5. Further, in data set [2] (MRSA, MRSA study strain, inoculum 10^6 CFU/ml), the MIC worked out at 0.78 µg/mL (≈ 0.948 µM). Further, the MBC in data set [2] (MRSA study strain, inoculum 10^6 CFU/ml) turned out to be 1.56 µg/mL (≈ 1.9 µM).

On to `O=C(O)c1cn(C2CC2)c2cc(N3CCNCC3)c(F)cc2c1=O` [ciprofloxacin], for which the “susceptibility of the organism” value in the data set on A. baumanii is given as “resistant”.

Take gentamicin: the “susceptibility of the organism” value with A. baumanii is on record as “susceptible”.

As for `CO[C@@]1(NC(=O)Cc2cccs2)C(=O)N2C(C(=O)O)=C(COC(N)=O)CS[C@@H]21` [cefoxitin, reference compound], the “susceptibility of the organism” value in the data set with M. abcessus was “sensitive”.

For `NC[C@H]1O[C@H](O[C@H]2[C@H](O)[C@@H](O[C@H]3O[C@H](CO)[C@@H](O)[C@H](N)[C@H]3O)[C@H](N)C[C@@H]2N)[C@H](N)C[C@@H]1O` [tobramycin], the “adverse event leading to discontinuation” value in the data set on Acinetobacter baumannii is “increased creatinine”. Besides, the “susceptibility of the organism” value in the data set on A. baumanii is recorded as “susceptible”.

Regarding `C[C@H]1[C@H](NC(=O)/C(=N\OC(C)(C)C(=O)O)c2csc(N)n2)C(=O)N1S(=O)(=O)O` [Aztreonam], the “adverse event leading to discontinuation” value in the data set with Acinetobacter baumannii is reported as “persistent eosinophilia”.

As for `CN[C@H](CC(C)C)C(=O)N[C@H]1C(=O)N[C@@H](CC(N)=O)C(=O)N[C@H]2C(=O)N[C@H]3C(=O)N[C@H](C(=O)N[C@H](C(=O)O)c4cc(O)cc(O)c4-c4cc3ccc4O)[C@H](O)c3ccc(c(Cl)c3)Oc3cc2cc(c3O[C@@H]2O[C@H](CO)[C@@H](O)[C@H](O)[C@H]2O[C@H]2C[C@](C)(N)[C@H](O)[C@H](C)O2)Oc2ccc(cc2Cl)[C@H]1O` [Vancomycin], in data set [1] (setting [5]), the “radiographic improvement (grade)” value is listed as 0.5+/−0.2 and the “radiographic improvement (percent)” value came out at 25%. Further, the “percentage of bone samples positive for MRSA” value in data set [1] (bone cultures) was 18.2%. The “rabbits/samples positive for MRSA in bone” value in data set [1] (bone cultures at sacrifice) was 2 out of 11. The “proportion of positive cultures in marrow” value in data set [1] (compared with 0.33 (5/15) in control group) is “not statistically significantly different from the control group”. In data set [1] (setting [6]), the “Counts (CFU/gm) Bone” value was 270.3 CFU/gm and 1315.8 CFU/gm and 0 CFU/gm (14×); the “Counts (CFU/gm) Marrow” value was 1250 CFU/gm and 0 CFU/gm (15×). The “average bacterial concentration of the group” value in data set [1] (tibia bone) was 1.4×10^2 CFU/gram bone. Besides, the “antibiotic serum levels (peaks and troughs)” value in data set [3] is listed as “above minimum inhibitory concentrations”. Moreover, the MIC/MBC ratio in data set [2] (MRSA study strain) is on record as 0.5. In data set [2] (MRSA), the MBC was determined as 0.78 µg/mL (≈ 0.538 µM) and the MIC amounted to 0.39 µg/mL (≈ 0.269 µM). Also, in data set [4], the mean weight gain came to 0.39 kg.
